Each structure is given as a SMILES string. Structures can show the parent of a compound that is named as a salt.

With `CNCc1cc(-n2ccc(N)n2)ccc1Oc1ccc(Cl)c(Cl)c1.Cl.Cl`, the melting point lay in the range of 225 to 233 °C. Molecule `CNC(C)c1cc(N2CCCC2=O)ccc1Oc1ccc(Cl)c(Cl)c1.Cl` (stereo not shown) displayed a melting point of 195 to 200 °C. Consider `CNCc1cc(-c2ccc(C)cc2)ccc1Oc1ccc(Cl)c(Cl)c1` (as salt: HCl) (hydrate or solvate) [Example 3, [4-(3,4-Dichlorophenoxy)-4′-methyl-biphenyl-3-ylmethyl]-methylamine], for which the melting point lay in the range of 208 to 210 °C. For the molecule `CNCc1cc(-c2ccco2)ccc1Oc1ccc(Cl)c(Cl)c1` (as salt: HCl) (hydrate or solvate) [Example 6, [2-(3,4-Dichlorophenoxy)-5-furan-2-ylbenzyl]-methylamine], the melting point was in the range of 188 to 191 °C. For `CNCc1ccc(-c2ccsc2)cc1Oc1ccc(Cl)c(Cl)c1` (as salt: HCl) (hydrate or solvate) [Example 9, [2-(3,4-Dichlorophenoxy)-4-thiophen-3-ylbenzyl]-methylamine], the melting point fell in the range of 181 to 184 °C. The result for `CNCc1cc(-c2ccncc2)ccc1Oc1ccc(Cl)c(Cl)c1` (as salt: HCl) (hydrate or solvate) [Example 14, [2-(3,4-Dichlorophenoxy)-5-pyridin-4-ylbenzyl]-methylamine] reads 179 to 181 °C. In the case of `CNCc1ccc(-c2ccccc2)cc1Oc1ccc(Cl)c(Cl)c1` (as salt: HCl) [Example 2, [3-(3,4-Dichlorophenoxy)-biphenyl-4-ylmethyl]-methylamine], the melting point fell in the range of 186 to 194 °C. As for `CNCc1cc(-c2ccsc2)ccc1Oc1ccc(Cl)c(Cl)c1` (as salt: HCl) [Example 8, [2-(3,4-Dichlorophenoxy)-5-thiophen-3-ylbenzyl]-methylamine], the melting point was 169 to 172 °C. The result for `CNCc1cc(-c2cccs2)ccc1Oc1ccc(Cl)c(Cl)c1` (as salt: HCl) [Example 10, [2-(3,4-Dichlorophenoxy)-5-thiophen-2-ylbenzyl]-methylamine] reads 207 to 209 °C; that for `CNCc1ccc(-c2cccs2)cc1Oc1ccc(Cl)c(Cl)c1` (as salt: HCl) [Example 11, [2-(3,4-Dichlorophenoxy)-4-thiophen-2-ylbenzyl]-methylamine], 180 to 183 °C; that for `CNCc1cc(-c2cccnc2)ccc1Oc1ccc(Cl)c(Cl)c1` (as salt: HCl) [Example 13, [2-(3,4-Dichlorophenoxy)-5-pyridin-3-ylbenzyl]-methylamine], 168 to 171 °C. Molecule `CNCc1cc(N2CCCC2=O)ccc1Oc1ccc(Cl)c(Cl)c1` (as salt: HCl) [Example 19, 1-[4-(3,4-Dichlorophenoxy)-3-(methylaminomethyl)phenyl]-pyrrolidin-2-one] showed a melting point of 166 to 170 °C.

`CNCc1ccc(-c2ccco2)cc1Oc1ccc(Cl)c(Cl)c1` (hydrate or solvate) [Example 7, [2-(3,4-Dichlorophenoxy)-4-furan-2-ylbenzyl]-methylamine] came in with a melting point of 129 to 134 °C.

The record behind these values is US6596741B2, “Biaryl ether derivatives useful as monoamine reuptake inhibitors” (Pfizer Inc, priority 1999, dated 2003).
